Experimental data taken from patent US10369131B2, “Ultrapure tetrahydrocannabinol-11-oic acids” (Corbus Pharmaceuticals, Inc., priority 2013, dated 2019).

How the values were obtained:
[1] = rat, at peak pharmacodynamic time points; cited from earlier work
[2] = system: neuropathic pain patients; conditions: man, cited from earlier work
tumor growth = conditions: doses in the anti-inflammatory range, compared with THC; cited from earlier work
CB1 receptor = CB1 receptor (Homo sapiens, UniProt P21554); conditions: earlier ajulemic acid synthesis products, literature; cited from earlier work
female CD-1 mice [3] = conditions: oral; AJA reported in U.S. Pat. No. 5,338,753; cited from earlier work
HL-60 cells = test: PGJ synthesis in HL-60 cells (ELISA); type: cell-based
Description: The CB2 antagonist SR144528 reduced ultrapure AJA-induced PGJ synthesis in HL60 immune system cells at low concentrations (squares). […] DMSO control (open circles). Treatments of cells was carried out in 48 well plates with 20,000 cells/500 μl RPMI/FCS media/well. Cells were incubated for 20 hrs at 37° C. and 5% CO2. Media was changed to 500 μl of serum free RPMI and TNFα (10 nM) added. […] N=4.

female CD-1 mice [4] = test: Mouse hot plate test for antinociception; type: in vivo; conditions: 60 min after administration
female CD-1 mice [5] = test: Ring immobility (catalepsy) test
Description: The cataleptic response was measured using the ring test described by Pertwee (Pertwee R G, The Ring Test. A Quantitative Method of Assessing the Cataleptic Effect of Cannabis in Mice, Br. J. Pharmacol. 46:753-763 (1972)). Mice were placed on a horizontal wire ring 5.5 cm in diameter attached to a 16 cm vertical rod. The hind paws and fore paws were placed at opposite sides of the ring. The ambient temperature was maintained at 30° C. and the environment was free of auditory stimuli and bright lights. The response was calculated as the fraction of time the mouse was immobile over a five (5) minute test period.
A dose response was conducted for ultrapure AJA to oral doses of 0.05 to 56 mg/kg.
(§1) Compounds were administered at a volume of […] via oral gavage.
(§2) Female CD-1 mice (20-25 g), obtained from Charles River (Raleigh, N.C.), were used for assessment in hot plate nociception, rectal temperature, and ring immobility assays. Separate mice were used for testing each dose of each compound in this battery of procedures. The mice had free access to food and water when in their home cages. All animals were kept in a temperature-controlled (20-22° C.) environment with a 12-hour light-dark cycle (lights on at 7 a.m.).
Each mouse was tested in a battery of three tests, in which cannabinoid CB1 agonists produce in vivo effects in mice (Martin et al., 1991): antinociception (hot plate assay), decreased rectal temperature and ring immobility. Prior to administration of the test compound, rectal temperature and baseline latency in the hot plate test were measured in the mice. The latter procedure involved placing the mouse on a heated surface (mouse cold/hot plate analgesia apparatus; Stoelting, Wood Dale, Ill.) at a setting of 55° C. Time until the mouse lifts or licks a paw was measured, whereupon the mouse was removed from the apparatus. […] After measurement of baseline temperature and hot plate latency, mice were administered vehicle or drug via oral gavage. […] Subsequently, the mice were placed on a 5.5 cm ring attached at a height of 16 cm to a ring stand, and the amount of time the animals remained motionless during a 5 min period was recorded. In addition, the number of times the mouse fell or jumped off the ring was recorded. If the mouse fell off the ring more than 5 times, the test was terminated.
Rectal temperature values were expressed as the difference between control temperature (before injection) and temperature following drug administration (Δ° C.). Antinociception was expressed as the percent maximum possible effect (MPE) using a 30-s maximum test latency as follows: [(test−control)/(30−control)]×100. During assessment for catalepsy, the total amount of time (in seconds) that the mouse remained motionless on the ring apparatus (except for breathing and whisker movement) was measured and was used as an indication of catalepsy-like behavior. This value was divided by 300 s and multiplied by 100 to obtain a percent immobility. If the mouse fell off the ring more than 5 times, the test was terminated and ring immobility data for the mouse were not included in analysis. Separate between-subjects ANOVAs were used to analyze each measure. Significant differences from control (vehicle) were further analyzed with Tukey post hoc tests (α=0.05) as necessary.

female CD-1 mice [6] = test: Rectal temperature (mouse hypothermia assay)
Description: as §1, §2
Each mouse was tested in a battery of three tests, in which cannabinoid CB1 agonists produce in vivo effects in mice (Martin et al., 1991): antinociception (hot plate assay), decreased rectal temperature and ring immobility. Prior to administration of the test compound, rectal temperature and baseline latency in the hot plate test were measured in the mice. The latter procedure involved placing the mouse on a heated surface (mouse cold/hot plate analgesia apparatus; Stoelting, Wood Dale, Ill.) at a setting of 55° C. Time until the mouse lifts or licks a paw was measured, whereupon the mouse was removed from the apparatus. […] Subsequently, the mice were placed on a 5.5 cm ring attached at a height of 16 cm to a ring stand, and the amount of time the animals remained motionless during a 5 min period was recorded. In addition, the number of times the mouse fell or jumped off the ring was recorded. […]
Rectal temperature values were expressed as the difference between control temperature (before injection) and temperature following drug administration (Δ° C.). Antinociception was expressed as the percent maximum possible effect (MPE) using a 30-s maximum test latency as follows: [(test−control)/(30−control)]×100. During assessment for catalepsy, the total amount of time (in seconds) that the mouse remained motionless on the ring apparatus (except for breathing and whisker movement) was measured and was used as an indication of catalepsy-like behavior. […]

[7] = oral 30 and 100 mg/kg (both doses), vs vehicle, p<0.05

Chain of CB1 receptor (P21554 whole entry): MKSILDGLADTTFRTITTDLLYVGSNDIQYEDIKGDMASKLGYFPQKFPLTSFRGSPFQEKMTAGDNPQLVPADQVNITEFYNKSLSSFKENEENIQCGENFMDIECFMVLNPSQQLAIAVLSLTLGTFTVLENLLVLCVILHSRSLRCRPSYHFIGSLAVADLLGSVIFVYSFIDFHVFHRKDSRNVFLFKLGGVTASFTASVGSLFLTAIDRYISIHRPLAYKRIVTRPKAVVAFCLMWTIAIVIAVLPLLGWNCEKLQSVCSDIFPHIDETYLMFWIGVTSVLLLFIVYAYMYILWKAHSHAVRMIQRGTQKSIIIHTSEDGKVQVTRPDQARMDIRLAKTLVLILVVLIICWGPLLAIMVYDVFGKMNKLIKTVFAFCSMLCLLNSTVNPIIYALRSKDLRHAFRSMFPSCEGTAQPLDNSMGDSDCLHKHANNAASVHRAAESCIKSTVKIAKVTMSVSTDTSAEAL

In the case of `CCCCCCC(C)(C)c1cc(O)c2c(c1)OC(C)(C)[C@@H]1CC=C(C(=O)O)C[C@@H]21` [AJA, (6aR,10aR)-3-(1′,1′-dimethylheptyl)-Δ8-tetrahydro-cannabinol-9-carboxylic acid], the “brain levels relative to those seen in the plasma” value [1] is given as 25-30%, the “cannabis-like psychotropic adverse events” value ([2]; neuropathic pain patients) is given as “absence” and the “pain scores in neuropathic pain patients” value [2] is given as “reduce pain scores”. For the same compound, the “inhibition of tumor growth” value (tumor growth) was “small but significant inhibition of tumor growth greater than that produced by THC”.
For `CCCCCCC(C)(C)c1cc(O)c2c(c1)OC(C)(C)[C@@H]1CC=C(C(=O)O)C[C@@H]21` [HU-239], the “ratio of CB1/CB2 binding” value (CB1 receptor) is listed as 0.19 and the “doses at which active in the mouse hot plate assay” value (female CD-1 mice [3]) is listed as under 0.5 mg/kg.
For `Cc1c(C(=O)NN2CCCCC2)nn(-c2ccc(Cl)cc2Cl)c1-c1ccc(Cl)cc1` [SR141716], the “effect of CB1 antagonist on ultrapure AJA-induced PGJ synthesis” value (HL-60 cells; antagonist 10 μM, 2 hrs) was “much smaller effect”.
With `COc1ccc2c(c1)c(CC(=O)O)c(C)n2C(=O)c1ccc(Cl)cc1` [indomethacin, reference compound] the “antinociception in the hot plate test (% MPE)” value (female CD-1 mice [4]; 30 mg/kg oral) was “did not significantly affect”, the ring immobility (female CD-1 mice [5]; 30 mg/kg oral) was “did not significantly affect” and the rectal temperature (female CD-1 mice [6]; 30 mg/kg oral) was “did not significantly affect”.
With `CCCCCc1cc(O)c2c(c1)OC(C)(C)[C@@H]1CCC(C)=C[C@@H]21` [Δ9-THC, reference compound] the “antinociception in the hot plate test (% MPE)” value (female CD-1 mice [4]; oral 100 mg/kg only, vs vehicle, p<0.05) was “produced significant antinociception”, the ring immobility (female CD-1 mice [5]; [7]) was “produced significant” and the “hypothermia (rectal temperature)” value (female CD-1 mice [6]; [7]) was “produced significant”.
For SR144528, the “effect of CB2 antagonist on ultrapure AJA-induced PGJ synthesis” value (HL-60 cells) was “reduced”.
